This passage reports IC50 results from patent publication US20260184697A1, “EZH1/2 INHIBITOR, PREPARATION THEREOF, AND USE THEREOF IN ANTI-TUMOR THERAPY” (JIANGSU TASLY DIYI PHARMACEUTICAL CO., LTD., priority 2022, published 2026).

Like-named read-outs stand apart in the source and are kept apart here.

Assay [1] deals with T1, EZH2/SUZ/EED (Homo sapiens, UniProt O75530+Q15022+Q15910).
T1 construct: purchased BPS 51003
Description: Inhibitory effect on EZH2 by the MTase-Glo method (Test Example 1). To be noted: EZH2/SUZ/EED 6.25 nM, H3 peptide 10 μM, SAM 3 μM, 30° C. 3 h, read-out: Test Example 1 WT EZH2 IC50. It counts as biochemical. In outline:
(§1)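 EZH2/SUZ/EED (6.25 nM) or EZH1/SUZ/EED (25 nM) pre-incubated 15 min with compound in pH 7.6 Bicine buffer, 0.5% DMSO. Biotinylated H3(21-44) peptide 10 μM plus SAM 3 μM reacted 3 h at 30 °C; MTase-Glo luminescence normalized to controls, IC50 from variable-slope fit.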

For assay [2], the system named is H3K27Me3 methylation in Karpas-422 cells. Description: H3K27Me3 cell method, inhibition of H3K27Me3 methylation (Test Example 2). It counts as cell-based, human. In outline: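 Karpas-422 cells, 15,000/well in 80% RPMI 1640 + 20% FBS, treated with compound dilutions (final DMSO 0.2%) for 3 days at 37 °C, 5% CO2. Cellular H3K27Me3 read by HTRF; viability in parallel by CCK8 at OD405. IC50 from log(inhibitor)-response variable-slope fit of inhibition rate.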

Assay [3] has as its system Karpas-422 cells. Briefly: Anti-proliferation by Cell Titer-Glo method (Test Example 3). In kind it is cell-based. To be noted: Homo sapiens. Here is the method:
Karpas-422 (Nanjing Kebai, CBP60629) cells were seeded in a 96-well plate (Corning, 3894) at 1,000 cells per well in growth medium (80% 1640 (Hyclone, SH30809.01)+20% FBS (Corning, 35-081-CV)), in a total of 100 μL, and then was added with 25 μL of 5-fold different concentrations of compounds diluted in growth medium. The cell growth group without compound addition was used as a positive control (maximum signal control), and the medium was used as a negative control (minimum signal control), while ensuring that the final contration of DMSO in each reaction well was 0.2%. Then the 96-well cell plate was placed in a cell culture incubator (37° C., 5% CO2) and incubated for 3 days. On the fourth day, the cell culture plate was taken out of the incubator, using a row gun to gently blow the cells up and down to mix, removing 62.5 μL of the cell suspension, adding 50 μL of growth medium and 12.5 μL of compounds of 5 times different concentrations, and then putting them in the cell incubator to incubate for 4 days. On the eighth day, the same method was used as the fourth day to treat the cells, then incubating in the cell culture incubator for 3 days. On the eleventh day, the Cell-Titer Glo (Promega, G7573) was used to detect cell viability, and a microplate reader was used to detect the signal value of luminescence.
The inhibition rate of different concentrations of compounds on cells was calculated as inhibition rate=[1−(compound signal value−negative control signal value)/(positive control signal value-negative control signal value)][…]. The IC50 of the compound on cell activity inhibition was calculated by GraphPad Prism 6 with log(inhibitor) vs. response-Variable slope model fitting. The fitting equation is: Y=Bottom+(Top−Bottom)/(1+10^((Log IC50−X)*Hill Slope)), wherein Y represents the inhibition rate, and X represents the known concentration of the compound after Log.
For orientation: ATP-based viability assays read luminescence as a measure of living cells.

The target in assay [4] is T2, EZH1/SUZ/EED (Homo sapiens, UniProt O75530+Q15022+Q92800).
T2 construct: purchased BPS 51006
Briefly: Inhibitory effect on EZH1 by the MTase-Glo method (Test Example 1). In kind it is biochemical. Conditions: EZH1/SUZ/EED 25 nM, H3 peptide 10 μM, SAM 3 μM, 30° C. 3 h, read-out: Test Example 1 WT EZH1 IC50. In outline:
as §1

[5] abbreviates: Homo sapiens, KARPAS-422, 72 h, Karpas-422 cells, 3 days incubation, HTRF signal, read-out: Test Example 2 H3K27Me3 inhibition (Karpas-422) IC50.
Setting [6] is: Karpas-422 cells, Cell-Titer Glo on the eleventh day, read-out: Test Example 3 Karpas-422 cell anti-proliferation IC50.
Setting [7] is: Homo sapiens, KARPAS-422, 72 h, read-out: Test Example 2 H3K27Me3 inhibition (Karpas-422) IC50(nM).
The mark [8] stands for this setting: KARPAS-422, read-out: Test Example 3 Karpas-422 cell anti-proliferation IC50(nM).

T1 sequence (Q15910 2-746 limits assumed): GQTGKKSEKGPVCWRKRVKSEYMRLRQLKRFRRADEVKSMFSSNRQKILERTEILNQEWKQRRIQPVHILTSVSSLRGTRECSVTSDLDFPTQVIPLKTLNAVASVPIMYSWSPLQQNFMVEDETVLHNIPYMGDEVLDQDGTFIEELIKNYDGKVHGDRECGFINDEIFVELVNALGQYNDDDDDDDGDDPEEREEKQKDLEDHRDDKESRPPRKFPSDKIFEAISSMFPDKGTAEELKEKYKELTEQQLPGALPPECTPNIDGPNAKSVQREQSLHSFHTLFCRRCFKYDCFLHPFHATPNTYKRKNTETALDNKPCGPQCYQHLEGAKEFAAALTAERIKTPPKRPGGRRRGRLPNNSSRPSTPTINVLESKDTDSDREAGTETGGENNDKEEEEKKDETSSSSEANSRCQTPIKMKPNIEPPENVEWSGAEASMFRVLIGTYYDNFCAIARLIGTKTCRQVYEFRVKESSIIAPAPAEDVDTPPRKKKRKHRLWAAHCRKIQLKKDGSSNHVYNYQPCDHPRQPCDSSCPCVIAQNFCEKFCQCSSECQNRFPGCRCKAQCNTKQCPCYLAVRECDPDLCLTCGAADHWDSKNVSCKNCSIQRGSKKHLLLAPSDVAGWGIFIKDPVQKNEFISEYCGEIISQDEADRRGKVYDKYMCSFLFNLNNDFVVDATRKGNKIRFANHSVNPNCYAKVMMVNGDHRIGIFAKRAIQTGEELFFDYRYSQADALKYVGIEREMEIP
T1 sequence (Q15022 2-739 partner limits assumed): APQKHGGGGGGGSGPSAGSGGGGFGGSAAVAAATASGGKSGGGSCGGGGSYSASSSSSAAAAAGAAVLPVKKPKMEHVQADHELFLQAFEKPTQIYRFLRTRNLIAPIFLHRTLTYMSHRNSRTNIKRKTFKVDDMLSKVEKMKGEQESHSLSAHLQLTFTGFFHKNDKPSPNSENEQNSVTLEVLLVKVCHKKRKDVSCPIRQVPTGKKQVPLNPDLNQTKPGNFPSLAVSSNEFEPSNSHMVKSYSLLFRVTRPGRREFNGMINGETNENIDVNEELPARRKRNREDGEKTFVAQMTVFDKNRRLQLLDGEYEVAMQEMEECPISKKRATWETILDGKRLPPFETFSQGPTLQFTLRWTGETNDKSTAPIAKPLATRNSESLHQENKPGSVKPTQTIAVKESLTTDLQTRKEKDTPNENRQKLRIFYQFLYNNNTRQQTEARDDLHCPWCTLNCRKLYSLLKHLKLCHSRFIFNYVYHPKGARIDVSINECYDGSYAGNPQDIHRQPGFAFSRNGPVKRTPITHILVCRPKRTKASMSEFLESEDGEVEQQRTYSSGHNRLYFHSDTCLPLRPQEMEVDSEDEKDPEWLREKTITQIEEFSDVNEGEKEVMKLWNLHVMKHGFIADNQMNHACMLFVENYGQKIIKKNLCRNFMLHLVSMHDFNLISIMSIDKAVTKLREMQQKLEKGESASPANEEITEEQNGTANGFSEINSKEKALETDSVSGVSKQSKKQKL
T1 sequence (O75530 2-441 partner limits assumed): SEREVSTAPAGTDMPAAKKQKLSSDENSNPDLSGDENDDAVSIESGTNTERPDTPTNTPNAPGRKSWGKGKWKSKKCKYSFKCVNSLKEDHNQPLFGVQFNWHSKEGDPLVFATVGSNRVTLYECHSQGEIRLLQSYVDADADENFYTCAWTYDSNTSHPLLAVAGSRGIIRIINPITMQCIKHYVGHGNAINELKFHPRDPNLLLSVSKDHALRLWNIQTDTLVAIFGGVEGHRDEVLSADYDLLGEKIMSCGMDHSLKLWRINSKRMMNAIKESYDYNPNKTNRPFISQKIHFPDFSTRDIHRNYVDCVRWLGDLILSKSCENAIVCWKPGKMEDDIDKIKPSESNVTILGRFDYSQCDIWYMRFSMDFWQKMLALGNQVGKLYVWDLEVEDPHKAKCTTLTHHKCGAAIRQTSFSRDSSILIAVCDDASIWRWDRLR
T2 sequence (Q92800 2-747 limits assumed): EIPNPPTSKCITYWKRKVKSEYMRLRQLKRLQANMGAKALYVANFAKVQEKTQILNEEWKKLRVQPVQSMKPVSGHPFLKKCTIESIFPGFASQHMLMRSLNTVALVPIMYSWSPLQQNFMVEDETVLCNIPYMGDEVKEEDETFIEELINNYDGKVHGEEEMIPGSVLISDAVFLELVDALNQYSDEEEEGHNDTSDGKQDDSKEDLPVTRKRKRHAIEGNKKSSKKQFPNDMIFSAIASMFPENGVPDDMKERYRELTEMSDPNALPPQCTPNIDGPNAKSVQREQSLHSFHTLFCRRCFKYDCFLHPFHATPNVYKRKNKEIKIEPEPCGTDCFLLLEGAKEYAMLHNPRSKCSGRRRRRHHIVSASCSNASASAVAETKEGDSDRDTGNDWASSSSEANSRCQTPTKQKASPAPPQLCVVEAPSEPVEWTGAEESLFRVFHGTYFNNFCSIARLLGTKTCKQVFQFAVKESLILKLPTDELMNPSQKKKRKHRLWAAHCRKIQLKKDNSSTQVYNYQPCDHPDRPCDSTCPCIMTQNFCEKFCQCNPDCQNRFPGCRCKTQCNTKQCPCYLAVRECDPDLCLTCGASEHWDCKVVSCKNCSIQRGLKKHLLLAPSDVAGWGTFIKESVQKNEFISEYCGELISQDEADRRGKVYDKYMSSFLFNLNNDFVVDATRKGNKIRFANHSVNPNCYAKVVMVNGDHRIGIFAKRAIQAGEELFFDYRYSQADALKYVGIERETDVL
T2 sequence (Q15022 2-739 partner limits assumed): as the sequence (Q15022 2-739 partner limits assumed) above
T2 sequence (O75530 2-441 partner limits assumed): as the sequence (O75530 2-441 partner limits assumed) above

For the compound `CSc1cc(C)[nH]c(=O)c1CNC(=O)c1cc(C#N)c2c(c1C)O[C@@H]([C@H]1CC[C@@H](N3CC(OC(F)F)C3)CC1)CO2` [Compound 163], the IC50 in assay [1] came to 7.1 nM; in assay [2] (setting [5]), 1.9 nM; in assay [3] (setting [6]), 1.7 nM.

As to `Cc1cc(C)c(CNC(=O)c2c(C)c3c(c(Cl)c2F)OC[C@H](C2CCC(N(C)C)CC2)O3)c(=O)[nH]1` (stereo partly drawn) [Compound 130], the IC50 was 12.6 nM in assay [1], 209 nM in assay [2] (setting [7]), 115 nM in assay [3] (setting [8]) and 201 nM in assay [4].

Turning to `COCCOC1CN([C@H]2CC[C@@H]([C@H]3COc4c(Cl)cc(C(=O)NCc5c(OC)cc(C)[nH]c5=O)c(C)c4O3)CC2)C1` [Compound 101], the IC50 in assay [1] came to 3.1 nM; in assay [2] (setting [5]) it was 2.2 nM; in assay [3] (setting [6]) it was 3.8 nM; in assay [4] it was 5.5 nM.

Consider `COc1cc(C)[nH]c(=O)c1CNC(=O)c1cc(Cl)c2c(c1C)O[C@@H]([C@H]1CC[C@@H](N3CC(OCCF)C3)CC1)CO2` [Compound 109], for which the IC50 in assay [1] is 2 nM; in assay [2] (setting [5]), 1.8 nM; in assay [3] (setting [6]) it was 2.5 nM; in assay [4], 3.8 nM.

With `Cc1cc(C)c(CNC(=O)c2cc(Cl)c3c(c2C)OC(C2CCC(N4CCCC4)CC2)CO3)c(=O)[nH]1` (stereo not drawn) [Compound 63], the IC50 in assay [1] was 11.5 nM; in assay [2] (setting [5]) it was 616 nM; in assay [3] (setting [6]), 341 nM; in assay [4], 375 nM.

Take `CSc1cc(C)[nH]c(=O)c1CNC(=O)c1cc(C#N)c2c(c1C)O[C@@H]([C@H]1CC[C@@H](N3CC(OCCF)C3)CC1)CO2` [Compound 161]: the IC50 in assay [1] worked out at 3.7 nM; in assay [2] (setting [5]), 2.2 nM; in assay [3] (setting [6]), 2.4 nM; in assay [4], 5.5 nM.

As for `COC1CN([C@H]2CC[C@@H]([C@H]3COc4c(C#N)cc(C(=O)NCc5c(SC)cc(C)[nH]c5=O)c(C)c4O3)CC2)C1` [Compound 153], the IC50 turned out to be 3.2 nM in assay [1], 6.2 nM in assay [2] (setting [5]), 3.7 nM in assay [3] (setting [6]) and 6.9 nM in assay [4].

Regarding `Cc1cc(C)c(CNC(=O)c2cc(Cl)c3c(c2C)O[C@H]([C@H]2CC[C@@H](N(C)C)CC2)CO3)c(=O)[nH]1` [Compound 54], the IC50 was 250 nM in assay [1], greater than 1000 nM in assay [2] (setting [5]), greater than 1000 nM in assay [3] (setting [6]) and 400 nM in assay [4].

On to `COC1CN([C@H]2CC[C@@H]([C@H]3COc4c(Cl)cc(C(=O)NCc5c(SC)cc(C)[nH]c5=O)c(Cl)c4O3)CC2)C1` [Compound 149], for which the IC50 came to 2.3 nM in assay [1], 3.6 nM in assay [2] (setting [5]), 2.7 nM in assay [3] (setting [6]) and 3.3 nM in assay [4].

As to `COC1CN([C@H]2CC[C@H]([C@@H]3COc4c(F)cc(C(=O)NCc5c(SC)cc(C)[nH]c5=O)c(C)c4O3)CC2)C1` [Compound 171], the IC50 in assay [2] (setting [5]) and in assay [3] (setting [6]) was greater than 1000 nM each time.

In the case of `C#Cc1cc(C(=O)NCc2c(SC)cc(C)[nH]c2=O)c(C)c2c1OC[C@H]([C@H]1CC[C@@H](N3CC(OC)C3)CC1)O2` [Compound 165], the figures for the IC50 in assay [2] (setting [5]) and in assay [3] (setting [6]) were 1.4 nM and 1.2 nM, respectively.

Turning to `CSc1cc(C)[nH]c(=O)c1CNC(=O)c1cc(Cl)c2c(c1C)O[C@@H]([C@H]1CC[C@@H](N3CC(OC4CC4)C3)CC1)CO2` [Compound 11], the IC50 in assay [1] was determined as 8.1 nM; in assay [2] (setting [5]), 1.7 nM; in assay [3] (setting [6]) it was 1.5 nM; in assay [4], 4.8 nM.

Take `COC1CN(C2CCC(C3COc4c(Cl)cc(C(=O)NCc5c(C)cc(C)[nH]c5=O)c(C)c4O3)CC2)C1` (single isomer, unassigned) [Compound 61]: the IC50 is 8.8 nM in assay [1]; 73.8 nM in assay [2] (Karpas-422 cells, 3 days incubation, HTRF signal, read-out: Test Example 2 H3K27Me3 inhibition (Karpas-422) IC50); 93.8 nM in assay [3] (setting [6]); 162 nM in assay [4].

Regarding `[2H]C([2H])([2H])OC1CN([C@H]2CC[C@@H]([C@H]3COc4c(Cl)cc(C(=O)NCc5c(SC)cc(C)[nH]c5=O)c(C)c4O3)CC2)C1` [Compound 20], the IC50 is 3.1 nM in assay [1], 3.2 nM in assay [2] (setting [5]), 1.6 nM in assay [3] (setting [6]) and 3.3 nM in assay [4].

Consider `Cc1cc(C)c(CNC(=O)c2cc(Cl)c3c(c2C)O[C@@H](C2CCC(N(C)C)CC2)CO3)c(=O)[nH]1` (stereo partly drawn) [Compound 53], for which the IC50 in assay [1] amounted to 3 nM; in assay [2] (setting [5]), 5 nM; in assay [3] (setting [6]) it was 14.1 nM; in assay [4], 26.8 nM.

For `COc1cc(C)[nH]c(=O)c1CNC(=O)c1cc(Cl)c2c(c1C)O[C@@H]([C@H]1CC[C@@H](N(C)C)CC1)CO2` [Compound 94], the IC50 in assay [1] turned out to be 3 nM; in assay [2] (setting [5]) it was 2.8 nM; in assay [3] (setting [6]) it was 5.1 nM; in assay [4], 8.1 nM.

`Cc1cc(C)c(CNC(=O)c2cc(Cl)c3c(c2C)OC[C@H]([C@H]2CC[C@@H](N(C)C)CC2)O3)c(=O)[nH]1` [Compound 56]: the IC50 in assay [1] was 340 nM; in assay [2] (setting [5]), 944 nM; in assay [3] (setting [6]), greater than 1000 nM; in assay [4], 810 nM.

Take `Cc1cc(C)c(CNC(=O)c2cc(Cl)c3c(c2C)OC[C@@H]([C@H]2CC[C@@H](N(C)C)CC2)O3)c(=O)[nH]1` [Compound 55]: the IC50 came to 4.5 nM in assay [1], 19.4 nM in assay [2] (setting [5]), 47.3 nM in assay [3] (setting [6]) and 150 nM in assay [4].

On to `COC1CN([C@H]2CC[C@@H]([C@H]3COc4c(F)cc(C(=O)NCc5c(SC)cc(C)[nH]c5=O)c(C)c4O3)CC2)C1` [Compound 169], for which the IC50 was 6 nM in assay [1], 4.2 nM in assay [2] (setting [5]), 1.8 nM in assay [3] (setting [6]) and 5.8 nM in assay [4].

`CSc1cc(C)[nH]c(=O)c1CNC(=O)c1cc(Cl)c2c(c1C)OC(C1CCC(N(C)C)CC1)CO2` (stereo not drawn) [Compound 3]: the IC50 in assay [1] stood at 3.3 nM; in assay [2] (setting [5]) it was 2.1 nM; in assay [3] (setting [6]), 7.6 nM; in assay [4], 4.4 nM.

Regarding `COC1CN([C@H]2CC[C@@H]([C@H]3COc4c(Cl)cc(C(=O)NCc5c(Cl)cc(C)[nH]c5=O)c(C)c4O3)CC2)C1` [Compound 175], the IC50 in assay [1] came out at 3.4 nM; in assay [2] (setting [5]) it was 16.1 nM; in assay [3] (setting [6]) it was 13.6 nM; in assay [4] it was 16.6 nM.

Regarding `CSc1cc(C)[nH]c(=O)c1CNC(=O)c1cc(Cl)c2c(c1C)OC(C1CCN(CC3CC3)CC1)CO2` (stereo not drawn) [Compound 16], the IC50 in assay [1] is 5.2 nM; in assay [2] (setting [5]) it was 85.9 nM; in assay [3] (setting [6]), 19.8 nM; in assay [4] it was 29.6 nM.

As for `CSc1cc(C)[nH]c(=O)c1CNC(=O)c1cc(Cl)c2c(c1C)O[C@@H]([C@H]1CC[C@@H](N3CCC3)CC1)CO2` [Compound 32], the IC50 in assay [1] was found to be 5.1 nM; in assay [2] (setting [7]), 1.7 nM; in assay [3] (setting [8]), 2 nM; in assay [4], 5.7 nM.

On to `CSc1cc(C)[nH]c(=O)c1CNC(=O)c1cc(Cl)c2c(c1C)O[C@@H]([C@H]1CC[C@H](N3CCN(C)CC3)CC1)CO2` [Compound 19], for which the IC50 in assay [1] was 3.4 nM; in assay [2] (setting [5]) it was 284 nM; in assay [3] (setting [6]) it was 89.5 nM; in assay [4], 26.3 nM.

As to `CSc1cc(C)[nH]c(=O)c1CNC(=O)c1cc(Cl)c2c(c1C)O[C@@H]([C@H]1CC[C@@H](N3CCN(C)CC3)CC1)CO2` [Compound 18], the IC50 in assay [1] was 3.5 nM; in assay [2] (setting [5]), 22.8 nM; in assay [3] (setting [6]) it was 17.7 nM; in assay [4] it was 7.4 nM.

With `Cc1cc(C)c(CNC(=O)c2cc(Cl)c3c(c2C)OC(C2CCC(N(C)C)CC2)CO3)c(=O)[nH]1` (stereo not drawn) [Compound 2], the IC50 is 3.9 nM in assay [1], 31.2 nM in assay [2] (setting [5]), 42.4 nM in assay [3] (setting [6]) and 88.5 nM in assay [4].
